In US20230055705A1, “SUBSTITUTED THIOPHENE CARBOXAMIDES AND DERIVATIVES THEREOF” (Bayer Aktiengesellschaft, priority 2019, published 2023):
Where two headings read alike, the source gives them in different places.

What was measured:
[1] = test system: salicylate responsive promoter sequence of the PR1 (pathogenesis-related protein I) gene (AT2G14610); assay: Induction of defense gene expression in Arabidopsis thaliana (PR1 promoter-GFP reporter plants); assay type: in vivo; details: Arabidopsis thaliana, 72 h, 3rd day after spraying, mock treated leaves set as 1.00, read-out: relative fluorescence value; for fold induction at 75 ppm: 75 ppm of compound
Procedure: Arabidopsis thaliana reporter plants containing the coding sequence of a green fluorescent protein (GFP) linked to the salicylate responsive promoter sequence of the PR1 (pathogenesis-related protein I) gene (AT2G14610) were grown for five days and then sprayed with compounds. On the 3rd day after spraying, plant fluorescence was assessed with a MacroFluo instrument from Leica Microsystems (Wetzlar, Germany). Fluorescences were quantified with the Meta-Morph Microscopy Automation & Image Analysis Software (Molecular Devices, Sunnyvale, Calif., United States). Background fluorescence in mock treated leaves was set as 1.00.

[2] = test system: Xanthomonas campestris pv. campestris; assay: Xanthomonas campestris pv. campestris in vitro cell test; assay type: cell-based; details: read-out: efficacy (inhibition of bacteria growth)
Procedure: • Solvent: DMSO • Culture medium: LB broth medium (Luria Broth Miller) Sigma • Inoculum: bacteria suspension
Compounds were solubilized in DMSO and the solution used to prepare the required range of concentrations. The final concentration of DMSO used in the assay was ≤1%.
(§1) Inoculum was prepared from a pre-culture of bacteria grown in liquid medium and diluted to the desired optical density (OD).
(§2) Compounds were evaluated for their ability to inhibit bacteria growth in liquid culture assay. The compounds were added in the desired concentrations to culture medium containing the bacteria suspension. After 24 h of incubation, the efficacy of compounds was determined by spectrometric measurement of bacteria growth. Inhibition was determined by comparing the absorbance values in wells containing the compounds with the absorbance in control wells without active ingredients.

[3] = test system: Pseudomonas syringae pv. tomato; assay: Pseudomonas syringae pv. tomato in vitro cell test; assay type: cell-based; details: 20 ppm of active ingredient, 24 h incubation, read-out: efficacy (inhibition of bacteria growth)
Procedure: Culture medium: LB broth medium (Luria Broth Miller) Sigma
Inoculum: bacteria suspension
Compounds were solubilized in DMSO and the solution used to prepare the required range of concentrations. The final concentration of DMSO used in the assay was 1%.
as §1, §2

[4] = test system: Colletotrichum lindemuthianum; assay: In vivo preventive test on Colletotrichum lindemuthianum (Antrachnose on bean); details: 144 h, inoculation 72 h after spraying, evaluated 6 days after inoculation, read-out: efficacy; for pest or weed control at 31 ppm: 31 ppm of active ingredient; for pest or weed control at 500 ppm: 500 ppm of active ingredient
Procedure: (§3) The tested active ingredients were prepared by homogenization in a mixture of acetone/Dimethyl sulfoxide/Tween®, and then diluted with water to obtain the desired active material concentration. The young plants of bean were treated by spraying the active ingredient prepared as described above. Control plants were treated only with an aqueous solution of acetone/Dimethyl sulfoxide/Tween®.
(§4) After 72 hours, the plants were contaminated by spraying the leaves with an aqueous suspension of Colletotrichum lindemuthianum spores. The contaminated bean plants were incubated for 24 hours at 20° C. and at 100% relative humidity and then for 5 days at 20° C. and at 90% relative humidity. The test was evaluated 6 days after the inoculation. 0% means an efficacy which corresponds to that of the control plants while an efficacy of 100% means that no disease was observed.
Compound CMP1 was tested in an in vivo preventive test on Colletotrichum lindemuthianum (Antrachnose on bean) in the same conditions as described in Example F.

Peronospora parasitica = assay: In vivo preventive test on Peronospora parasitica (Crucifer downy mildew); details: Hyaloperonospora parasitica, in Brassica oleracea, 120 h, cabbage, evaluated 5 days after inoculation, read-out: efficacy; for pest or weed control at 31 ppm: 31 ppm of active ingredient; for pest or weed control at 125 ppm: 125 ppm of active ingredient; for pest or weed control at 500 ppm: 500 ppm of active ingredient
Procedure: as §3, with “cabbage” for “bean”
After 72 hours, the plants were contaminated by spraying the leaves with an aqueous suspension of Peronospora parasitica spores. The contaminated cabbage plants were incubated for 5 days at 20° C. and at 100% relative humidity.
The test was evaluated 5 days after the inoculation. 0% means an efficacy which corresponds to that of the control plants while an efficacy of 100% means that no disease was observed.
Compounds CMP2 and CMP3 were tested in an in vivo preventive test on Peronospora parasitica (Crucifer downy mildew) in the same conditions as described in Example G.

Uromyces appendiculatus = assay: In vivo preventive test on Uromyces appendiculatus (bean rust); details: 240 h, evaluated 10 days after inoculation, read-out: efficacy; for pest or weed control at 125 ppm: 125 ppm of active ingredient; for pest or weed control at 500 ppm: 500 ppm of active ingredient
Procedure: as §3
as §4, with “Uromyces appendiculatus” for “Colletotrichum lindemuthianum”, “9” for “5”, “70-80%” for “90%”, “10” for “6”
Compounds CMP5 and CMP6 were tested in an in vivo preventive test on Uromyces appendiculatus (bean rust) in the same conditions as described in Example I.

[5] = test system: Pseudomonas syringae pv. tomato; assay: In vivo preventive test on Pseudomonas syringae pv. tomato (bacterial speck on tomato); details: evaluated 5 or 6 days after inoculation, read-out: efficacy; for pest or weed control at 31 ppm: 31 ppm of active ingredient; for pest or weed control at 500 ppm: 500 ppm of active ingredient
Procedure: as §3, with “tomato” for “bean”
After 72 hours, the plants were contaminated by spraying the leaves with an aqueous bacteria suspension of Pseudomonas syringae pv. tomato. The contaminated tomato plants were incubated for 4 days in saturated atmosphere at 22° C. day/20° C. night—70% HR and then for 1 or 2 days at 22° C. day/20° C. night at 70-80% relative humidity.
The test was evaluated 5 or 6 days after the inoculation. 0% means an efficacy which corresponds to that of the control plants while an efficacy of 100% means that no disease was observed.
Compounds CMP1 and CMP4 were tested in an in vivo preventive test on Pseudomonas syringae pv. tomato (bacterial speck on tomato) in the same conditions as described in Example J.

[6] = LogP by HPLC on reversed phase columns (EEC directive 79/831 Annex V.A8); assay type: physicochemical; details: reversed phase HPLC columns
Method in brief: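 Reversed-phase HPLC per EEC directive 79/831 Annex V.A8. Calibrated with straight-chain alkan-2-ones (C3–C16) of known LogP, LogP from retention times by linear interpolation between successive alkanones. Lambda-max taken from UV spectra (200–400 nm) at chromatographic peak maxima.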

Alternaria alternata = Alternaria alternata in vitro cell test; assay type: cell-based; details: 120 h, 20 ppm of active ingredient, 5 days incubation, read-out: efficacy (inhibition of fungal growth)
Procedure: • Solvent: DMSO • Culture medium: 14.6 g anhydrous D-glucose (VWR), 7.1 g Mycological Peptone (Oxoid), 1.4 g granulated Yeast Extract (Merck), QSP 1 liter • Inoculum: spores suspension
Fungicides were solubilized in DMSO and the solution used to prepare the required range of concentrations. The final concentration of DMSO used in the assay was ≤[…]1%.
A spore suspension of A. alternata was prepared and diluted to the desired spore density.
Fungicides were evaluated for their ability to inhibit spore germination and mycelium growth in liquid culture assay. The compounds were added in the desired concentration to the culture medium with spores. After 5 days incubation, fungi-toxicity of compounds was determined by spectrometric measurement of mycelium growth. Inhibition of fungal growth was determined by comparing the absorbance values in wells containing the fungicides with the absorbance in control wells without fungicides.

[7] = test system: Xanthomonas campestris pv. campestris; assay: In vivo preventive test on Xanthomonas campestris pv. campestris (black rot on cabbage); details: for pest or weed control at 125 ppm: 125 ppm of active ingredient
Procedure: The tested active ingredients were prepared by homogenization in a mixture of acetone/Dimethyl sulfoxide/Tween®, and then diluted with water to obtain the desired active material concentration.
The young plants of cabbage were treated by spraying the active ingredient prepared as described above. Control plants were treated only with an aqueous solution of acetone/Dimethyl sulfoxide/Tween®.
After 72 hours, the plants were contaminated by spraying the leaves with an aqueous bacteria suspension of Xanthomonas campestris pv. campestris. The contaminated cabbage plants were incubated for 8 or 10 days at 27° C. at 95% relative humidity.
The test was evaluated 8 or 10 days after the inoculation. 0% means an efficacy which corresponds to that of the control plants while an efficacy of 100% means that no disease was observed. […]
Compounds CMP1, CMP2, CMP3 and CMP4 were tested in an in vivo preventive test on Xanthomonas campestris pv. campestris (black rot on cabbage) in the same conditions as described in Example H.

[8] = 20 ppm of active ingredient, 24 h incubation
[9] = method [a]: LC-UV, acidic range, 0.1% formic acid in water and acetonitrile as eluent (linear gradient 10% to 95% acetonitrile)
[10] = 31 ppm of active ingredient, evaluated 8 or 10 days after inoculation, read-out: efficacy
[11] = evaluated 8 or 10 days after inoculation, read-out: efficacy
[12] = method [a]: LC-UV, in an acidic range, with 0.1% formic acid in water and acetonitrile as eluent (linear gradient from 10% to 95% acetonitrile)

Compound | fold induction at 75 ppm [1] | fold induction at 300 ppm [1] | inhibition at 20 ppm [2, 8] | inhibition at 20 ppm [3] | pest or weed control at 31 ppm [4] | pest or weed control at 31 ppm (Peronospora parasitica) | pest or weed control at 125 ppm (Peronospora parasitica) | pest or weed control at 125 ppm (Uromyces appendiculatus) | chromatographic logP [6, 9] | pest or weed control at 31 ppm [7, 10] | pest or weed control at 125 ppm [7, 11] | pest or weed control at 500 ppm [4] | pest or weed control at 500 ppm (Peronospora parasitica) | pest or weed control at 500 ppm (Uromyces appendiculatus) | chromatographic logP [6, 12] | also measured
COC(=O)C(NC(=O)c1sc(Cl)c(Cl)c1Cl)c1cccs1 (centres unmarked) [I.124] | > 2 | > 2 | ≤ 30% | ≤ 30% | 90 to 100% | 90 to 100% | 90 to 100% | 90 to 100% | 4.22 | – | – | – | – | – | – | pest or weed control at 31 ppm [5]: 80 to 89%
COC(=O)[C@H](CC(=O)OC(C)(C)C)NC(=O)c1sc(Cl)c(Cl)c1Cl [I.136] | > 2 | > 2 | ≤ 30% | ≤ 30% | – | 90 to 100% | 90 to 100% | – | 4.54 | 80 to 89% | 70 to 79% | – | – | – | – | inhibition at 20 ppm (Alternaria alternata): ≤ 30%
CCOC(=O)C(Cc1c[nH]c2ccccc12)NC(=O)c1sc(Cl)c(Cl)c1Cl (centres unmarked) [I.013] | – | > 2 | ≤ 30% | ≤ 30% | – | 80 to 89% | – | 70 to 79% | – | – | 80 to 89% | 80 to 89% | 90 to 100% | 90 to 100% | 4.44 | –
N#CCNC(=O)c1sc(Cl)c(Cl)c1Cl [I.025, 3,4,5-trichloro-N-(cyanomethyl)thiophene-2-carboxamide] | > 2 | > 2 | ≤ 30% | ≤ 30% | 90 to 100% | 80 to 89% | 80 to 89% | – | – | 70 to 79% | – | 90 to 100% | 90 to 100% | – | 2.64 | pest or weed control at 500 ppm [5]: 80 to 89%; chromatographic logP ([6]; given in the preparation examples, method not marked): 2.59
CCOC(=O)C(CO)NC(=O)c1sc(Cl)c(Cl)c1Cl (centres unmarked) [I.078] | > 2 | > 2 | ≤ 30% | ≤ 30% | – | 90 to 100% | 90 to 100% | 90 to 100% | – | – | – | 90 to 100% | 90 to 100% | 90 to 100% | 2.75 | inhibition at 20 ppm (Alternaria alternata): ≤ 30%
CCOC(=O)C(COC)NC(=O)c1sc(Cl)c(Cl)c1Cl (centres unmarked) [I.059] | > 2 | > 2 | ≤ 30% | ≤ 30% | 70 to 79% | 80 to 89% | 70 to 79% | 90 to 100% | – | 90 to 100% | 70% | 90 to 100% | 90 to 100% | 90 to 100% | 3.83 | pest or weed control at 500 ppm [5]: 90 to 100%
CNC(=S)SC[C@H](NC(=O)c1sc(Cl)c(Cl)c1Cl)C(=O)OC [I.140] | > 2 | > 2 | – | ≤ 30% | – | 90 to 100% | 90 to 100% | 90 to 100% | 3.52 | – | – | – | – | – | – | inhibition at 20 ppm ([2]; 24 h): ≤ 30%; pest or weed control at 31 ppm ([7]; read-out: efficacy, 31 ppm of active ingredient, evaluated 8 or 10 days after inoculation): 90 to 100%; pest or weed control at 31 ppm [5]: 70 to 79%
